In patent US20240294519A1, “PYRROLO[2,3-b]PYRIDINE PGDH INHIBITORS AND METHODS OF MAKING AND USING” (EPIRIUM BIO INC., priority 2021, published 2024) one finds IC50 data, which are given here for 51 molecules.

pIC50: −log10 of the molar value.

The test has as its target T1, 15-PGDH/HPGD (Homo sapiens, UniProt P15428).
T1 construct: purchased R&D System 5660-DH
T1 sequence (P15428 1-266): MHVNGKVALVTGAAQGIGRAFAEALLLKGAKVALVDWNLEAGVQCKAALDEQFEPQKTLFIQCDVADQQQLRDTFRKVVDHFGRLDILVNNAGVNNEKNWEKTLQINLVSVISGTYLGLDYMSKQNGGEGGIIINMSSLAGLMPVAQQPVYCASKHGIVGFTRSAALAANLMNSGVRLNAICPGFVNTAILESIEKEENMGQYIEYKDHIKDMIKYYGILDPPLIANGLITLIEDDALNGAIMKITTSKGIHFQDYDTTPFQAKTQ
Kind of test: hPGDH inhibitor screening biochemical assay. Conditions: 10 nM enzyme, 15 μM PGE2, 0.25 mM NAD, fluorescence ex/em 340/485 nm. Here is the method: A hydroxyprostaglandin dehydrogenase inhibition screening biochemical assay can be performed to assess the synthesized inhibitors provided herein. Provided herein is an exemplary biochemical assay for hPGDH inhibitor screening.
The in vitro biochemical assay can be performed in white, 384 plates in total 20 μl reaction volume consisting of 10 nM of 15-PGDH/HPGD (R&D System #5660-DH), 15 μM Prostaglandin E2 (Sigma, C8 t #P5640-10 MG) and 0.25 mM β-Nicotinamide adenine dinucleotide sodium salt (Sigma, C8 t #N0632-5G) made in reaction buffer (50 mM Tris-HCl, pH 7.5, 0.01% Tween 20) at 10-point dose response curve for test/tool compounds. Briefly, 5 μl (4×) of compounds solution and 5 μl (final concentration, 10 nM) of enzyme solution is added to white 384 well plates and incubated for 10 mins at 37° C. 5 μl (4×) of […] and 5 μl (4×) of β-Nicotinamide adenine dinucleotide sodium salt is added to the wells and incubated for 10 mins at room temperature. Fluorescence is recorded at ex/em=340 nm/485 nm. The percentage (%) inhibition of enzyme activity was determined relative to positive control (1% DMSO) and IC50 was calculated using GraphPad prism software (four parameter-variable slope equation).
Turning to `O=C(c1cnc2c(ccn2-c2ccc(-c3nc[nH]n3)cn2)c1)N1CCC(F)(F)CC1` [Compound B-34, (1-(5-(1H-1,2,4-triazol-3-yl)pyridin-2-yl)-1H-pyrrolo[2,3-b]pyridin-5-yl)(4,4-difluoropiperidin-1-yl)methanone], the negative-log IC50 (pIC50) (usually the IC50 on a negative log10 scale, so that one unit is a factor of ten) was above 7.00. As to `C[C@H]1CCCN(C(=O)c2cnc3c(ccn3-c3ccc(-c4nc[nH]n4)cn3)c2)C1` [Compound B-35, (S)-(1-(5-(4H-1,2,4-triazol-3-yl)pyridin-2-yl)-1H-pyrrolo[2,3-b]pyridin-5-yl)(3-methylpiperidin-1-yl)methanone], the negative-log IC50 (pIC50) was above 7.00. With `C[C@H]1CCCN(C(=O)c2cnc3c(ccn3-c3cccc(-c4nc[nH]n4)c3)c2)C1` [Compound B-37, (S)-(1-(3-(1H-1,2,4-triazol-3-yl)phenyl)-1H-pyrrolo[2,3-b]pyridin-5-yl)(3-methylpiperidin-1-yl)methanone], the pIC50 was above 7.00. Take `O=C(c1cnc2c(ccn2-c2ccc(-c3ncn[nH]3)nc2)c1)N1CCC[C@H](O)C1` [Compound B-39]: the negative-log IC50 (pIC50) is above 7.00.

In turn, `C[C@H]1CCN(C(=O)c2cnc3c(ccn3-c3ccc(-c4ncn[nH]4)nc3)c2)C1` [Compound B-41] showed a pIC50 above 7.00. `CC1(C)CCN(C(=O)c2cnc3c(ccn3-c3ccc(-c4ncn[nH]4)nc3)c2)C1` [Compound B-42] gave a pIC50 above 7.00.

The molecule `O=C(c1cnc2c(ccn2-c2ccc(-c3ncn[nH]3)nc2)c1)N1CC[C@H](O)C1` [Compound B-43] had a negative-log IC50 (pIC50) of 6.00 to 7.00. On to `CO[C@@H]1CCN(C(=O)c2cnc3c(ccn3-c3ccc(-c4ncn[nH]4)nc3)c2)C1` [Compound B-44], for which the pIC50 is above 7.00. On to `O=C(c1cnc2c(ccn2-c2cnc(-c3ncn[nH]3)nc2)c1)N1CCC(F)(F)CC1` [Compound B-45, (1-(2-(1H-1,2,4-triazol-5-yl)pyrimidin-5-yl)-1H-pyrrolo[2,3-b]pyridin-5-yl)(4,4-difluoropiperidin-1-yl)methanone], for which the pIC50 is above 7.00. As for `CC1CN(C(=O)c2cnc3c(ccn3-c3ccc(-c4ncn[nH]4)nc3)c2)CC(C)O1` (stereo not drawn) [Compound B-47, (1-(6-(1H-1,2,4-triazol-5-yl)pyridin-3-yl)-1H-pyrrolo[2,3-b]pyridin-5-yl)(2,6-dimethylmorpholino) methanone], the pIC50 is above 7.00. The molecule `N=C(NN)c1ccc(-n2ccc3cc(C(=O)N4CCC(F)(F)CC4)cnc32)cn1` [Compound B-48, 5-(5-(4,4-difluoropiperidine-1-carbonyl)-1H-pyrrolo[2,3-b]pyridin-1-yl) picolinimidohydrazide] gave a pIC50 above 7.00. As for `CC1CN(C(=O)c2cnc3c(ccn3-c3ccc(-c4nc(N)n[nH]4)nc3)c2)CCO1` (stereo not drawn) [Compound B-49, (1-(6-(3-amino-1H-1,2,4-triazol-5-yl)pyridin-3-yl)-1H-pyrrolo [2,3-b]pyridin-5-yl)(2-methylmorpholino)methanone], the figure is above 7.00; as for `Nc1nnc(-c2ccc(-n3ccc4cc(C(=O)N5CCCC(F)(F)C5)cnc43)cc2)[nH]1` [Compound B-54], above 7.00. `CCOC(=O)Nc1cncc(-n2ccc3cc(C(=O)N4CCCC(F)(F)C4)cnc32)c1` [Compound B-55] had a pIC50 above 7.00. Turning to `O=C(c1cnc2c(ccn2-c2ccc(-c3nnc[nH]3)nc2)c1)N1CCC2(CC1)CC2` [Compound B-56], the pIC50 is above 7.00. `O=C(c1cnc2c(ccn2-c2cnn(CC(F)(F)F)c2)c1)N1CCCC(F)(F)C1` [Compound B-57] gave a negative logarithm of the IC50 (pIC50) above 7.00. Regarding `CC(C)c1nnc(-c2ccc(-n3ccc4cc(C(=O)N5CCC(F)(F)CC5)cnc43)cc2)[nH]1` [Compound B-58], the negative-log IC50 (pIC50) was above 7.00. The molecule `O=C(c1cnc2c(ccn2-c2cnn(CC(F)(F)F)c2)c1)N1CCCC(C(F)(F)F)C1` (stereo not drawn) [Compound B-59] had a pIC50 of 6.00 to 7.00. `O=C(c1cnc2c(ccn2-c2ccc3nc(N4CCOCC4)nn3c2)c1)N1CCCC(F)(F)C1` [Compound B-60] showed a negative logarithm of the IC50 (pIC50) above 7.00. Consider `O=C(c1cnc2c(ccn2-c2ccc(-c3nnc[nH]3)cc2)c1)N1CCCC(F)(F)C1` [Compound B-61], for which the pIC50 is above 7.00. On to `COCCn1cc(-n2ccc3cc(C(=O)N4CCC(F)(F)CC4)cnc32)cn1` [Compound B-62], for which the pIC50 is 6.00 to 7.00. `COC(=O)Nc1cncc(-n2ccc3cc(C(=O)N4CCC[C@H](C(F)(F)F)C4)cnc32)c1` [Compound B-65] showed a negative logarithm of the IC50 (pIC50) above 7.00.

`COC(=O)Nc1cncc(-n2ccc3cc(C(=O)N4CCC[C@@H](C(F)(F)F)C4)cnc32)c1` [Compound B-66] had a pIC50 above 7.00. The molecule `Nc1nnc(-c2cccc(-n3ccc4cc(C(=O)N5CCC(F)(F)CC5)cnc43)c2)[nH]1` [Compound B-71] showed a pIC50 above 7.00.

Consider `CN(C)c1nnc(-c2cccc(-n3ccc4cc(C(=O)N5CCC(F)(F)CC5)cnc43)c2)[nH]1` [Compound B-73], for which the negative logarithm of the IC50 (pIC50) is above 7.00.

For `Cc1nnc(-c2ccc(-n3ccc4cc(C(=O)N5CCC(F)(F)CC5)cnc43)cc2)[nH]1` [Compound B-74], the pIC50 was above 7.00. `C[C@@H]1CN(C(=O)c2cnc3c(ccn3-c3ccc(N4CCOC4=O)nc3)c2)CCC1(F)F` [Compound B-75] gave a negative-log IC50 (pIC50) above 7.00. For `C[C@H]1CN(C(=O)c2cnc3c(ccn3-c3ccc(N4CCOC4=O)nc3)c2)CCC1(F)F` [Compound B-76], the pIC50 was above 7.00.

As for `CN(C)c1nnc(-c2ccc(-n3ccc4cc(C(=O)N5CCC(F)(F)CC5)cnc43)cc2)[nH]1` [Compound B-77], the pIC50 was above 7.00. In turn, `Nc1nnc(-c2ccc(-n3ccc4cc(C(=O)N5CCC(F)(F)CC5)cnc43)cc2)[nH]1` [Compound B-78, (1-(4-(5-amino-4H-1,2,4-triazol-3-yl)phenyl)-1H-pyrrolo[2,3-b]pyridin-5-yl)(4,4-difluoropiperidin-1-yl)methanone] gave a pIC50 above 7.00.

The molecule `CN1CCN(c2ccc(-n3ccc4cc(C(=O)N5CCC(F)(F)CC5)cnc43)cn2)C1=O` [Compound B-91] gave a pIC50 above 7.00.

For `O=C(Nc1cncc(-n2ccc3cc(C(=O)N4CCC(F)(F)CC4)cnc32)c1)C1CC1` [Compound B-93], the pIC50 is above 7.00. Molecule `O=C(c1cnc2c(ccn2-c2cnn(C3CCOCC3)c2)c1)N1CCC(F)(F)CC1` [Compound B-94] gave a pIC50 above 7.00. As for `CCn1cc(-n2ccc3cc(C(=O)N4CCC(F)(F)CC4)cnc32)cn1` [Compound B-95], the figure is above 7.00; as for `NC(=O)c1ccc(-n2ccc3cc(C(=O)N4CCC(F)(F)CC4)cnc32)cn1` [Compound B-104], above 7.00. As for `N#Cc1ccc(-n2ccc3cc(C(=O)N4CC[C@@H](F)C4)cnc32)cc1` [Compound B-126], the figure is above 7.00; as for `N#Cc1ccc(-n2ccc3cc(C(=O)N4CC[C@H](F)C4)cnc32)cc1` [Compound B-127], above 7.00; as for `O=C(c1cnc2c(ccn2-c2ccc(-c3cnc[nH]3)cc2)c1)N1CCC(F)(F)CC1` [Compound B-226], above 7.00. In the case of `O=C(c1cnc2c(ccn2-c2ccc(-c3nnc[nH]3)cc2)c1)N1CCSCC1` [Compound B-227], the pIC50 is above 7.00.

With `O=C(c1cnc2c(ccn2-c2ccc(-c3nnc[nH]3)cc2)c1)N1CCC[C@@H](C(F)(F)F)C1` [Compound B-228], the pIC50 is above 7.00.

In the case of `O=C(c1cnc2c(ccn2-c2ccc(-c3nnc[nH]3)cc2)c1)N1CCC[C@H](C(F)(F)F)C1` [Compound B-229], the negative logarithm of the IC50 (pIC50) was above 7.00. As to `CCOC(=O)Nc1cncc(-n2ccc3cc(C(=O)N4CCSCC4)cnc32)c1` [Compound B-230], the pIC50 was above 7.00. Turning to `O=C(c1cnc2c(ccn2-c2ccc(-c3cn[nH]c3)cc2)c1)N1CCC(F)(F)CC1` [Compound B-233], the pIC50 was above 7.00. Molecule `O=C(c1cnc2c(ccn2-c2cnn(CC(F)F)c2)c1)N1CCC(F)(F)CC1` [Compound B-235] had a pIC50 of 6.00 to 7.00. As for `O=C(Nc1cncc(-n2ccc3cc(C(=O)N4CCC(F)(F)CC4)cnc32)c1)C1CCC(F)(F)CC1` [Compound B-237], the figure is above 7.00; as for `CCOC(=O)Nc1cncc(-n2ccc3cc(C(=O)N4CCCC(C(F)(F)F)C4)cnc32)c1` (stereo not drawn) [Compound B-238], above 7.00; as for `CC1(O)CCCN(C(=O)c2cnc3c(ccn3-c3ccc(-c4nnc[nH]4)c(F)c3)c2)C1` (stereo not drawn) [Compound B-239], above 7.00. Turning to `CC1(O)CCCN(C(=O)c2cnc3c(ccn3-c3cc(Cl)cc(-c4nnc[nH]4)c3)c2)C1` (stereo not drawn) [Compound B-240], the pIC50 is above 7.00. Molecule `CC1(O)CCCN(C(=O)c2cnc3c(ccn3-c3cc(F)cc(-c4nnc[nH]4)c3)c2)C1` (stereo not drawn) [Compound B-241] had a negative logarithm of the IC50 (pIC50) above 7.00. Molecule `CO[C@H]1CCCN(C(=O)c2cnc3c(ccn3-c3cc(F)cc(-c4nnc[nH]4)c3)c2)C1` [Compound B-242] showed a pIC50 above 7.00. Regarding `C[C@@]1(O)CCCN(C(=O)c2cnc3c(ccn3-c3ccc(-c4nnc[nH]4)cc3)c2)C1` [Compound B-243], the pIC50 is above 7.00.
